# Assay results from PMC6309922, “(ADP-ribosyl)hydrolases: Structural Basis for Differential Substrate Recognition and Inhibition” (Cell Chemical Biology, 2018).
# Like-named read-outs stand apart in the source and are kept apart here. Marks after values point to notes of the source that are not given here.
# Tests used:
# hARH1 [1] = molecular target: T1, hARH1 (Homo sapiens, UniProt P54922); assay: Removal of Arg-ADP-ribosylation from HeLa cell extracts (32P autoradiography); assay type: biochemical; settings: arginine ADP-ribosylated whole cell lysate as substrate; 1-1,000 μM compound
# T1 construct: made in house; host or cells: E. coli Rosetta (DE3)
# T1 sequence (P54922 whole entry): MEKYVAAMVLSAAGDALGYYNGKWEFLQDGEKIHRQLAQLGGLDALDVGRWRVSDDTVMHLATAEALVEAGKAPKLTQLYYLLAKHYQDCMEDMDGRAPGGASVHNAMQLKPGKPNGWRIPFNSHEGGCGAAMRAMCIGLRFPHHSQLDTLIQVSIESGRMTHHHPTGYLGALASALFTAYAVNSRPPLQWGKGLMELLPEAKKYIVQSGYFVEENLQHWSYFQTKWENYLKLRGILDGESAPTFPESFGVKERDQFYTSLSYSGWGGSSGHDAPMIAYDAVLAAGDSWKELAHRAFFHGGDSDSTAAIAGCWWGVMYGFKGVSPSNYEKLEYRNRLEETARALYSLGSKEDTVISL
# Protocol: In vitro modification of proteins from HeLa cell extracts by mARTC2.2 recombinant protein was performed, with minor modifications, as described earlier ([Palazzo et al., 2016]). Briefly, cells were grown to confluence on two 10-cm dishes, washed thrice with 50 mM TrisHCl (pH 7.5) and 200 mM NaCl and lysed in 800 μL of 50 mM Tris-HCl pH 7.5, 150 mM NaCl, 0.5% Triton X-100, 0.2 mM DTT and 1 μM olaparib at 4°C supplemented with cOmplete™ EDTA-free protease inhibitor (Roche). The cell extract was clarified by centrifugation. 12 uL of extract per reaction were supplemented with 15 mM MgCl2, 1 μM mARTC2.2 and 1 μCi ^32P-NAD^+ and incubated for 15 min at 30°C. Lysates were further incubated in presence of hydrolases for 45 min at 30°C. Reactions were stopped by addition of LDS sample buffer (Life Technologies) and incubation at 95°C for 3 min. Samples were then analysed by SDS-PAGE and autoradiography. For inhibitor study the hARH1 was pre-incubated with indicated amount of inhibitor for 5 min at RT.
# hARH1 [2] = molecular target: T1, hARH1; assay: Enzyme kinetics and inhibition assay with fluorogenic substrate TFMU-ADPr; assay type: biochemical; settings: for IC50: 20 μM TFMU-ADPr as substrate, triplicate
# Protocol: (§1) Reactions were performed as described in ([Drown et al., 2018]). Briefly, reactions were carried out in 384-well plates using 50 mM Na2HPO4 (pH 7.4), 10 mM MgCl2, 5 mM DTT and indicated amounts of TFMU-ADPr as substrate. After shaking for 5 s, fluorescence was recorded at 5 s intervals for 15 min on a Molecular Devices SpectraMax M3 microplate reader (reader settings: λEx 385 nm, λEm 502 nm, λcutoff 495 nm, 6 reads/well, low gain). Initial reaction rates were determined by fitting the linear portions of reaction progress curves. Initial rates were plotted against substrate concentration and fit to the Michaelis-Menton equation using a non-linear curve-fitting algorithm in GraphPad Prism 6.
# (§2) For inhibitor studies enzymes and inhibitor were pre-incubated for 5 min at RT before addition of substrate. Percent inhibition was calculated with the no enzyme and no inhibitor reactions as positive and negative controls, respectively. Dose-response curves were fit using GraphPad Prism 6.
# LchARH3 [3] = molecular target: T2, LchARH3 (Latimeria chalumnae, UniProt H3BCW1); assay type: biochemical; settings: for inhibitory potential against ARH3 (in words): serine MARylated histone H3 peptide as substrate, 1-1,000 μM compound; for support of hydrolysis of Ser-ADPr and PAR by metal (in words): MgII-stripped enzyme, 100 μM metal salt
# T2 construct: LchARH3 (GenBank: XP_005988572; aa residues 10-362); made in house; host or cells: E. coli Rosetta (DE3)
# T2 sequence (H3BCW1 10-356 limits assumed): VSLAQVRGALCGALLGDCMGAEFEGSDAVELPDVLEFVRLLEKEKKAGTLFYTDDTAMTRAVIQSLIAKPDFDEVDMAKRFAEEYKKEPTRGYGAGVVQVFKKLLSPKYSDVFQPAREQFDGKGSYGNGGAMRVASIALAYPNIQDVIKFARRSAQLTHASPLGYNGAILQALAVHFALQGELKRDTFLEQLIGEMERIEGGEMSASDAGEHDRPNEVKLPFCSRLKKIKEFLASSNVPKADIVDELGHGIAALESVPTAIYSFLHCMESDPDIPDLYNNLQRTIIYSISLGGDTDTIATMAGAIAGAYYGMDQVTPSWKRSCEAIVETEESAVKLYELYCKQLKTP
# Protocol: (§3) ARH3 activity assays were performed essentially as described ([Fontana et al., 2017]). Briefly, H3 peptide (aa 1-20, biotinylated) was modified by incubation with 0.5 μM PARP1, 1 μM HPF1 and activated DNA (Trevigen) in assay buffer (50 mM TrisHCl [pH 8], 200 mM NaCl, 2 mM MgCl2, 1 mM DTT, 10 μM NAD^+ and 1 μCi ^32P-NAD^+). Reactions were incubated for 30 min at 30°C and stopped by addition of 1 μM olaparib. Reaction were further incubated in presence of 1 μM hydrolase for 1 h at 30°C. Reactions were stopped by addition of LDS sample buffer (Life Technologies) and incubation at 95°C for 3 min. Samples were then analysed by SDS-PAGE, immunoblot and autoradiography. For inhibitor study the ARH3 was pre-incubated with indicated amount of inhibitor for 5 min at RT.
# hARH3 [4] = molecular target: T3, hARH3 (Homo sapiens, UniProt Q9NX46); assay: De-modification of Ser-ADP-ribosyl H3 peptide and degradation of PAR (32P autoradiography); assay type: biochemical; settings: for support of hydrolysis of Ser-ADPr and PAR by metal (in words): MgII-stripped enzyme, 100 μM metal salt
# T3 construct: made in house; host or cells: E. coli Rosetta (DE3)
# T3 sequence (Q9NX46 1-363): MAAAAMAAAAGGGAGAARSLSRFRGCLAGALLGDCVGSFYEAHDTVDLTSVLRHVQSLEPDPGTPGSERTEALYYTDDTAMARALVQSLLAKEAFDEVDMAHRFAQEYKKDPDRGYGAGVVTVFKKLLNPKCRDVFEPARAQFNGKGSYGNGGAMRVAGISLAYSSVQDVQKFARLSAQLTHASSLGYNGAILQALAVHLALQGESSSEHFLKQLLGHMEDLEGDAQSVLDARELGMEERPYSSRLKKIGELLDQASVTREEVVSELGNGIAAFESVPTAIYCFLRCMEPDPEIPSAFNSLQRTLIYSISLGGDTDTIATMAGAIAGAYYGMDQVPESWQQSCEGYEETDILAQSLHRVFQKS
# Protocol: as §3
# hARH3 [5] = molecular target: T3, hARH3; assay: Enzyme kinetics and inhibition assay with fluorogenic substrate TFMU-ADPr; assay type: biochemical; settings: triplicate; for IC50: 20 μM TFMU-ADPr as substrate
# Protocol: as §1, §2
# hARH3 [6] = molecular target: T3, hARH3; design: method as in Drown et al., 2018; settings: in situ generation of Arg-ADPr; ref Drown et al., 2018; cited from earlier work
# hARH3 [7] = molecular target: T3, hARH3; assay: Differential scanning fluorimetry (DSF) with metal salts, MgII-depleted enzyme; assay type: binding; settings: for TM / ΔTM: 100 μM metal salt; for TM: n = 3; for ΔTM: ΔTM = TM (salt) - TM (apo)
# LchARH3 [8] = molecular target: T2, LchARH3; assay: biochemical; assay type: binding; settings: for TM / ΔTM: 100 μM metal salt; for TM: n = 6; for ΔTM: ΔTM = TM (salt) - TM (apo)
# Protocol: LchARH3 WT was purified as described above and dialysed against 50 mM TrisHCl (pH 8), 200 mM NaCl, 20 mM EDTA, 1 mM DTT and 5% (v/v) glycerol. EDTA was removed by dialysing twice against 50 mM TrisHCl (pH 8), 200 mM NaCl, 1 mM DTT and 5% (v/v) glycerol. Each dialysis step was carried out with a minimum 1:1,000 ratio of sample to buffer. Only samples with purity >90% (as assessed by SDS-PAGE) were used for subsequent DSF experiments.
# Assays were performed essentially as described earlier ([Vivoli et al., 2014]). Briefly, 10 μM LchARH3 wt EDTA-treated, 10x SYPRO® Orange (ThermoFisher Scientific) and indicated amounts of metal salts in assay buffer (50 mM TrisHCl [pH 8], 200 mM NaCl and 1 mM DTT) were thermal denaturated in MicroAmp® Fast plates (Life Technologies) in a StepOne qPCR instrument (ThermoFisher Scientific). The initial temperature of 24°C was held for 2.5 min, followed by a ramp to 97.5°C at 0.5°C/45 sec and then 2 min pause at 98°C. Curves were fit using GraphPad Prism 6. For analysis recorded data were cropped two data points after recorded fluorescence signal maximum and the resulting curves fitted using the Boltzman equation F=BOTTOM+(TOP−BOTTOM)/1+e^(TM−T/SLOPE)
# with TM, melting temperature; T, temperature; SLOPE, steepness of curve. For the inference of the binding constant the determined TM’s were plotted and analysed using a single binding site model: TM=BOTTOM+((TOP−BOTTOM)∗(1−(P−Kd−M+(P+M+Kd)^2∗(4∗P∗M)/2P))) with P, protein concentration; M, metal salt concentration; Kd dissociation constant.
# [9] = DSF, 16 metal salt dilutions, single-site ligand-binding model, triplicate ± SD, read-out: Kd
# [10] = DSF, rounded, read-out: Kd of magnesium on its own
structure (smiles),measurement,setting,value
"Nc1ncnc2c1ncn2[C@@H]1O[C@H](CO[P@](=O)(O)O[P@@](=O)(O)OC[C@H]2NC[C@H](O)[C@@H]2O)[C@@H](O)[C@H]1O [ADP-HPD, adenosine diphosphate (hydroxymethyl)pyrrolidinediol]",inhibitory potential against hARH1 (in words),hARH1 [1],only mild activity
same,inhibition of hARH1 (in words),"hARH1 [2]; IC50 conditions, 20 μM TFMU-ADPr",no inhibition
same,inhibitory potential against ARH3 (in words),LchARH3 [3],inhibited
Nc1ncnc2c1ncn2C1OC(COP(=O)(O)OP(=O)(O)OCC2CC(O)CN2)C(O)C1O (centres unmarked) [ADP-HPM],inhibitory potential against hARH1 (in words),hARH1 [1],only minor inhibitor potential
same,IC50,hARH1 [2],164 µM
same,inhibitory potential against ARH3 (in words),LchARH3 [3],only minor inhibitor potential
"Nc1ncnc2c1ncn2C1OC(COP(=O)(O)OP(=O)(O)OCC2OC(O)C(O)C2O)C(O)C1O (centres unmarked) [ADPr, ADP-ribose]",inhibitory potential against ARH3 (in words),"hARH3 [4]; serine MARylated histone H3 peptide as substrate, 1-1,000 μM compound",inhibited
same,inhibitory potential against hARH1 (in words),hARH1 [1],only mild activity
same,IC50,hARH3 [5],3.2 µM
same,Ki,hARH3 [5]; TFMU-ADPr substrate,1.08 ± 0.08 µM
same,IC50,hARH1 [2],228 µM
same,inhibitory potential against ARH3 (in words),LchARH3 [3],inhibited
"NC(=NCCC[C@H](N)C(=O)O)N[C@H]1O[C@H](COP(=O)(O)OP(=O)(O)OC[C@H]2O[C@@H](n3cnc4c(N)ncnc43)[C@H](O)[C@@H]2O)[C@@H](O)[C@H]1O [Arg-ADPr, arginine-ADP-ribose]",inhibition of hARH3 (in words),hARH3 [6],"potent, cellular inhibitor of hARH3"
"[Ca+2] [CaCl2, Calcium chloride dehydrate]",TM,hARH3 [7],50.1 ± 0.08 °C
same,ΔTM,hARH3 [7],3.4 ^d °C
same,Kd,hARH3 [7]; [9],266 ± 42 µM
same,TM,LchARH3 [8],44.4 ± 0.08 °C
same,ΔTM,LchARH3 [8],4.2 ^d °C
same,Kd,LchARH3 [8]; [9],431 ± 68 µM
same,IC50,hARH3 [5],13.7 µM
same,inhibition of ARH3 by calcium (in words),"LchARH3 [3]; de-MARylation assay in presence of 1 mM MgCl2 or 1 mM MnCl2, 1-2,000 μM CaCl2","inhibitor of magnesium-, but not manganese-, supplemented ARH3"
"O.O.O.O.O.O.[Cl-].[Cl-].[Co+2] [CoCl2, Cobalt(II) chloride hexahydrate]",TM,hARH3 [7],46.7 ± 0.09 °C
same,ΔTM,hARH3 [7],0.0 °C
same,TM,LchARH3 [8],39.6 ± 0.28 °C
same,ΔTM,LchARH3 [8],−0.6 °C
"O.O.O.O.O.O.[Cl][Cr]([Cl])[Cl] [CrCl3, Chromium(III) chloride hexahydrate]",TM,hARH3 [7],46.5 ± 0.04 °C
same,ΔTM,hARH3 [7],−0.3 °C
same,TM,LchARH3 [8],40.1 ± 0.21 °C
same,ΔTM,LchARH3 [8],−0.1 °C
"[Cl][Cu][Cl] [CuCl2, Copper(II) chloride]",TM,hARH3 [7],40.5 ± 0.10 °C
same,ΔTM,hARH3 [7],−6.2 ^d °C
same,TM,LchARH3 [8],39.0 ± 0.21 °C
same,ΔTM,LchARH3 [8],−1.2 ^d °C
"[Cl-].[Li+] [LiCl, Lithium chloride]",TM,hARH3 [7],46.6 ± 0.15 °C
same,ΔTM,hARH3 [7],−0.1 °C
same,TM,LchARH3 [8],40.1 ± 0.16 °C
same,ΔTM,LchARH3 [8],−0.1 °C
"[Mg+2] [MgCl2, Magnesium chloride hexahydrate]",support of hydrolysis of Ser-ADPr and PAR by metal (in words),hARH3 [4],able to support hydrolysis of Ser-ADPr and PAR
same,TM,hARH3 [7],46.7 ± 0.11 °C
same,ΔTM,hARH3 [7],0.0 °C
same,Kd,hARH3 [7]; [9],5410 ± 322 µM
same,Kd,hARH3 [7]; [10],~5400 µM
same,TM,LchARH3 [8],41.4 ± 0.17 °C
same,ΔTM,LchARH3 [8],1.3 ^d °C
same,Kd,LchARH3 [8]; [9],2300 ± 257 µM
same,Kd,LchARH3 [8]; [10],~2300 µM
same,apparent concentration needed to restore activity,"LchARH3 [3]; EDTA-treated LchARH3, 1-1000 µM MgCl2",~50 µM
same,support of hydrolysis of Ser-ADPr and PAR by metal (in words),LchARH3 [3],able to support hydrolysis of Ser-ADPr and PAR
"[Mn+2] [MnCl2, Manganese(II) chloride tetrahydrate]",support of hydrolysis of Ser-ADPr and PAR by metal (in words),hARH3 [4],able to support hydrolysis of Ser-ADPr and PAR
same,Kd,hARH3 [7],208 ± 12 µM
same,TM,hARH3 [7],52.6 ± 0.09 °C
same,Kd,LchARH3 [8],175 ± 24 µM
same,TM,LchARH3 [8],51.5 ± 0.23 °C
same,support of hydrolysis of Ser-ADPr and PAR by metal (in words),LchARH3 [3],able to support hydrolysis of Ser-ADPr and PAR
"O.O.O.O.O.O.[Cl][Ni][Cl] [NiCl2, Nickel(II) chloride hexahydrate]",TM,hARH3 [7],46.4 ± 0.09 °C
same,ΔTM,hARH3 [7],−0.3 °C
same,TM,LchARH3 [8],40.7 ± 0.22 °C
same,ΔTM,LchARH3 [8],0.5 °C
"[Cl-].[Cl-].[Zn+2] [ZnCl2, Zinc chloride]",TM,hARH3 [7],44.1 ± 0.07 °C
same,ΔTM,hARH3 [7],−2.6 ^d °C
same,TM,LchARH3 [8],37.4 ± 0.25 °C
same,ΔTM,LchARH3 [8],−2.8 ^d °C
